Data: patent US12281122B1, “PI3K inhibitors” (Cogent Biosciences, Inc., priority 2023, dated 2025)

Assays:
[1] = tested on: T47D (PI3Kα-H1047R) cell line; assay: HTRF phospho-AKT(S473) cell assay in T47D cells; format: cell-based, human
Procedure, shortened: (§1)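 HTRF read-out of phospho-AKT(S473) in lysates gave IC50 values after 2 h compound exposure at 37° C. Dose series was 12 points at 1:3, topping at 5 μM for T47D and 10 μM for SKBR3. Only SKBR3 received 70 ng/ml PDGF-BB during the last 15 minutes.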

[2] = tested on: SKBR3 (PI3Kα-Wild Type) cell line; assay: HTRF phospho-AKT(S473) cell assay in SKBR3 cells; format: cell-based, human
Procedure, shortened: as §1

[3] = Homo sapiens; HTRF phospho-AKT(S473), T47D (PI3Kα-H1047R) cells, 2 hours compound incubation
[4] = Homo sapiens, SK-BR-3; HTRF phospho-AKT(S473), SKBR3 (PI3Kα-Wild Type) cells, 2 hours compound incubation, PDGF-BB stimulated
[5] = Homo sapiens; T47D (PI3Kα-H1047R) cells, HTRF phospho-AKT(S473), 2 hours compound incubation
[6] = Homo sapiens, SK-BR-3; SKBR3 (PI3Kα-Wild Type) cells, HTRF phospho-AKT(S473), 2 hours compound incubation, PDGF-BB stimulated

| Structure (SMILES) | IC50 [1, 3] [nM] | IC50 [2, 4] [µM] | IC50 [1, 5] [nM] | IC50 [2, 6] [µM] |
| --- | --- | --- | --- | --- |
| Cc1cnc(N2CCN(c3nc4c([C@@H](C)Nc5ccc(Cl)nc5C(=O)NS(C)(=O)=O)cc(C)cc4c(=O)n3C)CC2)nc1 [Compound 532, (R)-6-chloro-3-((1-(3,6-dimethyl-2-(4-(5-methylpyrimidin-2-yl)piperazin-1-yl)-4-oxo-3,4-dihydroquinazolin-8-yl)ethyl)amino)-N-(methylsulfonyl) picolinamide] | 250 to 500 | ≥ 5 | – | – |
| COc1nccnc1C1CCN(c2nc3c([C@@H](C)Nc4ccc(Cl)nc4C(=O)NS(C)(=O)=O)cc(C)cc3c(=O)n2C)CC1 [Compound 563, (R)-6-chloro-3-((1-(2-(4-(3-methoxypyrazin-2-yl)piperidin-1-yl)-3,6-dimethyl-4-oxo-3,4-dihydroquinazolin-8-yl)ethyl)amino)-N-(methylsulfonyl) picolinamide] | 250 to 500 | ≥ 5 | – | – |
| Cc1cc([C@@H](C)Nc2ccc(Cl)nc2C(=O)NS(C)(=O)=O)c2nc(N3CCC(c4nnc(C)o4)CC3)n(C)c(=O)c2c1 [Compound 557, (R)-6-chloro-3-((1-(3,6-dimethyl-2-(4-(5-methyl-1,3,4-oxadiazol-2-yl)piperidin-1-yl)-4-oxo-3,4-dihydroquinazolin-8-yl)ethyl)amino)-N-(methylsulfonyl) picolinamide] | 250 to 500 | 1 to 5 | – | – |
| Cc1cc([C@@H](C)Nc2ccc(Cl)nc2C(=O)NS(C)(=O)=O)c2nc(N3CCC[C@@H](Oc4cnccn4)C3)n(C)c(=O)c2c1 [Compound 375, 6-chloro-3-(((R)-1-(3,6-dimethyl-4-oxo-2-((R)-3-(pyrazin-2-yloxy)piperidin-1-yl)-3,4-dihydroquinazolin-8-yl)ethyl)amino)-N-(methylsulfonyl) picolinamide] | – | – | 250 to 500 | ≥ 5 |
| Cc1cc([C@@H](C)Nc2ccc(Cl)nc2C(=O)NS(C)(=O)=O)c2nc(N3CCC4(CCc5c(cnn5C)C4)CC3)n(C)c(=O)c2c1 [Compound 344, (R)-6-chloro-3-((1-(3,6-dimethyl-2-(1-methyl-1,4,6,7-tetrahydrospiro[indazole-5,4′-piperidin]-1′-yl)-4-oxo-3,4-dihydroquinazolin-8-yl)ethyl)amino)-N-(methylsulfonyl) picolinamide] | – | – | < 250 | ≥ 5 |
| Cc1cc([C@@H](C)Nc2ccc(Cl)nc2C(=O)NS(C)(=O)=O)c2nc(N3Cc4cn(-c5ccccc5)nc4C3)n(C)c(=O)c2c1 [Compound 147, (R)-6-chloro-3-((1-(3,6-dimethyl-4-oxo-2-(2-phenyl-2,6-dihydropyrrolo[3,4-c]pyrazol-5(4H)-yl)-3,4-dihydroquinazolin-8-yl)ethyl)amino)-N-(methylsulfonyl) picolinamide] | – | – | 250 to 500 | ≥ 5 |
| Cc1cc([C@@H](C)Nc2ccc(Cl)nc2C(=O)NS(C)(=O)=O)c2nc(N3C[C@@H]4[C@H](C3)[C@H]4c3cc(C4CC4)[nH]n3)n(C)c(=O)c2c1 [Compound 524, 6-chloro-3-(((R)-1-(2-((1R,5S,6R)-6-(5-cyclopropyl-1H-pyrazol-3-yl)-3-azabicyclo[3.1.0]hexan-3-yl)-3,6-dimethyl-4-oxo-3,4-dihydroquinazolin-8-yl)ethyl)amino)-N-(methylsulfonyl) picolinamide] | < 250 | 1 to 5 | – | – |
| Cc1cc([C@@H](C)Nc2ccc(Cl)nc2C(=O)NS(C)(=O)=O)c2nc(N3CCC(c4cnc(C(F)F)cn4)CC3)n(C)c(=O)c2c1 [Compound 428, (R)-6-chloro-3-((1-(2-(4-(5-(difluoromethyl)pyrazin-2-yl)piperidin-1-yl)-3,6-dimethyl-4-oxo-3,4-dihydroquinazolin-8-yl)ethyl)amino)-N-(methylsulfonyl) picolinamide] | – | – | 250 to 500 | 1 to 5 |
| Cc1cc([C@@H](C)Nc2ccc(Cl)nc2C(=O)NS(C)(=O)=O)c2nc(-c3ccc(N4CCN(C)CC4)nc3)n(C)c(=O)c2c1 [Compound 251] | – | – | < 250 | 1 to 5 |
| Cc1cnc(C2CCN(c3nc4c([C@@H](C)Nc5ccc(Cl)nc5C(=O)NS(C)(=O)=O)cc(C)cc4c(=O)n3C)CC2)nc1 [Compound 404, (R)-6-chloro-3-((1-(3,6-dimethyl-2-(4-(5-methylpyrimidin-2-yl)piperidin-1-yl)-4-oxo-3,4-dihydroquinazolin-8-yl)ethyl)amino)-N-(methylsulfonyl) picolinamide] | – | – | < 250 | 1 to 5 |
| CO[C@H]1C[C@H](S(=O)(=O)NC(=O)c2nc(Cl)ccc2N[C@H](C)c2cc(C)cc3c(=O)n(C)c(N4Cc5ccc(F)cc5C4)nc23)C1 [Compound 379, 6-chloro-3-(((R)-1-(2-(5-fluoroisoindolin-2-yl)-3,6-dimethyl-4-oxo-3,4-dihydroquinazolin-8-yl)ethyl)amino)-N-(((1r,3R)-3-methoxycyclobutyl)sulfonyl)picolinamide] | – | – | 250 to 500 | ≥ 5 |
| Cc1cc([C@@H](C)Nc2ccc(Cl)nc2C(=O)NS(C)(=O)=O)c2nc(N3CCC4(CCN(c5ccn(C)n5)CC4)C3)n(C)c(=O)c2c1 [Compound 358, (R)-6-chloro-3-((1-(3,6-dimethyl-2-(8-(1-methyl-1H-pyrazol-3-yl)-2,8-diazaspiro[4.5]decan-2-yl)-4-oxo-3,4-dihydroquinazolin-8-yl)ethyl)amino)-N-(methylsulfonyl) picolinamide] | – | – | < 250 | 1 to 5 |

Continued, values first:

| IC50 [1, 3] [nM] | IC50 [2, 4] [µM] | IC50 [1, 5] [nM] | IC50 [2, 6] [µM] | Structure (SMILES) |
| --- | --- | --- | --- | --- |
| 250 to 500 | ≥ 5 | – | – | Cc1cc([C@@H](C)Nc2ccc(Cl)nc2C(=O)NS(C)(=O)=O)c2nc(N3CCC[C@H](c4c[nH]nc4C)C3)n(C)c(=O)c2c1 (relative stereo) [Compound 703, 6-chloro-3-(((R)-1-(3,6-dimethyl-2-((R*)-3-(3-methyl-1H-pyrazol-4-yl)piperidin-1-yl)-4-oxo-3,4-dihydroquinazolin-8-yl)ethyl)amino)-N-(methylsulfonyl) picolinamide] |
| 250 to 500 | ≥ 5 | – | – | COc1cccc(N2CCN(c3nc4c([C@@H](C)Nc5ccc(Cl)nc5C(=O)NS(C)(=O)=O)cc(C)cc4c(=O)n3C)CC2)n1 [Compound 596, (R)-6-chloro-3-((1-(2-(4-(6-methoxypyridin-2-yl)piperazin-1-yl)-3,6-dimethyl-4-oxo-3,4-dihydroquinazolin-8-yl)ethyl)amino)-N-(methylsulfonyl) picolinamide] |
| < 250 | ≥ 5 | – | – | Cc1ccn([C@H]2[C@@H]3CN(c4nc5c([C@@H](C)Nc6ccc(Cl)nc6C(=O)NS(C)(=O)=O)cc(C)cc5c(=O)n4C)C[C@@H]32)c(=O)c1 [Compound 754, 6-chloro-3-(((R)-1-(3,6-dimethyl-2-((1R,5S,6S)-6-(4-methyl-2-oxopyridin-1(2H)-yl)-3-azabicyclo[3.1.0]hexan-3-yl)-4-oxo-3,4-dihydroquinazolin-8-yl)ethyl)amino)-N-(methylsulfonyl) picolinamide] |
| 250 to 500 | ≥ 5 | – | – | COc1cc(N2C[C@@H]3C[C@H]2CN3c2nc3c([C@@H](C)Nc4ccc(Cl)nc4C(=O)NS(C)(=O)=O)cc(C)cc3c(=O)n2C)ccn1 [Compound 637, 6-chloro-3-(((R)-1-(2-((1S,4S)-5-(2-methoxypyridin-4-yl)-2,5-diazabicyclo [2.2.1]heptan-2-yl)-3,6-dimethyl-4-oxo-3,4-dihydroquinazolin-8-yl)ethyl)amino)-N-(methylsulfonyl) picolinamide] |
| < 250 | 1 to 5 | – | – | Cc1cc([C@@H](C)Nc2ccc(Cl)nc2C(=O)NS(C)(=O)=O)c2nc(N3CC[C@H](Oc4cnc(C)cn4)C3)n(C)c(=O)c2c1 [Compound 631, 6-chloro-3-(((R)-1-(3,6-dimethyl-2-((S)-3-((5-methylpyrazin-2-yl)oxy)pyrrolidin-1-yl)-4-oxo-3,4-dihydroquinazolin-8-yl)ethyl)amino)-N-(methylsulfonyl) picolinamide] |
| 250 to 500 | 1 to 5 | – | – | Cc1cc([C@@H](C)Nc2ccc(Cl)nc2C(=O)NS(C)(=O)=O)c2nc(-c3ccc4[nH]ncc4c3)n(C)c(=O)c2c1 [Compound 832, (R)-3-((1-(2-(1H-indazol-5-yl)-3,6-dimethyl-4-oxo-3,4-dihydroquinazolin-8-yl)ethyl)amino)-6-chloro-N-(methylsulfonyl) picolinamide] |
| < 250 | 1 to 5 | – | – | Cc1cc([C@@H](C)Nc2ccc(Cl)nc2C(=O)NS(C)(=O)=O)c2nc(N3CCC4(CCOCC4)CC3)n(C)c(=O)c2c1 [Compound 690, (R)-6-chloro-3-((1-(3,6-dimethyl-4-oxo-2-(3-oxa-9-azaspiro[5.5]undecan-9-yl)-3,4-dihydroquinazolin-8-yl)ethyl)amino)-N-(methylsulfonyl) picolinamide] |
| 250 to 500 | 1 to 5 | – | – | Cc1cc([C@@H](C)Nc2ccc(Cl)nc2C(=O)NS(C)(=O)=O)c2nc(N3Cc4cn(CC(F)(F)F)nc4C3)n(C3CC3)c(=O)c2c1 [Compound 735, (R)-6-chloro-3-((1-(3-cyclopropyl-6-methyl-4-oxo-2-(2-(2,2,2-trifluoroethyl)-2,6-dihydropyrrolo[3,4-c]pyrazol-5(4H)-yl)-3,4-dihydroquinazolin-8-yl)ethyl)amino)-N-(methylsulfonyl) picolinamide] |
| 250 to 500 | 1 to 5 | – | – | [2H]C([2H])([2H])n1ccc([C@H]2[C@@H]3CN(c4nc5c([C@@H](C)Nc6ccc(Cl)nc6C(=O)NS(C)(=O)=O)cc(C)cc5c(=O)n4C4CC4)C[C@@H]32)n1 [Compound 734, 6-chloro-3-(((R)-1-(3-cyclopropyl-6-methyl-2-((1R,5S,6R)-6-(1-(methyl-d3)-1H-pyrazol-3-yl)-3-azabicyclo[3.1.0]hexan-3-yl)-4-oxo-3,4-dihydroquinazolin-8-yl)ethyl)amino)-N-(methylsulfonyl) picolinamide] |
